According to publication PMC5383040, “Inhibition of prenylated KRAS in a lipid environment” (PLoS ONE, 2017):
Where two headings read alike, the source gives them in different places.

How the values were obtained:
SW1990 cells = test: Proliferation assay (CellTiter-Glo); format: cell-based; details: Homo sapiens, 120 h, 5 days, read-out: Growth inhibition EC50
Protocol: Cells were seeded in 384-well plates and incubated with a 1:3 serial dilution of compound starting from 30 μM at 37°C with 5% CO2 for 5 days. Cell viability was measured using the CellTiter-Glo® Luminescent Cell Viability Assay kit (Promega) and read on an Envision (Perkin Elmer) plate reader. Percent growth inhibition was calculated by normalizing treatment to DMSO control. […] For every compound, each concentration was run in triplicate and all points were used for fitting a single curve.

full-length KRAS = molecular target: T1, full-length KRAS (Homo sapiens, UniProt P01116, G12V); test: BLI control with full-length KRAS in the absence of PS; format: binding
T1 construct: Avi-tag-(Gly)8 –KRAS^G12V (2–188) was cloned into the pFastBac1 vector; made in house; host or cells: Tn5 insect cells, co-infected with BirA virus
Protocol: Determination of Kds was performed on the Octet RED platform, according to the manufacturer's recommendations in their application note on small molecule analysis. The prenylated KRAS peptide containing the farnesyl group attached to the terminal cysteine (biotin-[…](farnesyl)-OCH3) was obtained from AnaSpec (Fremont, California). Proteins were obtained as described above. […] The protein was attached to SuperStreptavidin biosensors (ForteBio 18–5057) via Avi-tagged-KRAS G12V:[…], followed by the KRAS protein to a final concentration of 40nM. After incubation for 1h at RT, the protein was loaded into a 96-well plate (Greiner 655209), and loaded a BLI response of 3-4nm. […] A reference sensor was run to remove systematic drift, and a second set of SuperStreptavidin biosensors blocked with biocytin was examined to remove systematic optical interferences, and to check for non-specific binding of compounds to the biosensor. Kds were determined using the ForteBio analysis software tool, which determines Kd from the steady-state plot, or from the determination of the kinetic constants kon and koff. […] After establishing reproducibility with compound 3, all other compounds were measured in singleton.

SW1990 cells (KRAS^G12D) = test: Western blot analysis of pAKT and pERK in SW1990; format: cell-based, human; details: 3hrs treatment, dose-response
Protocol: (§1) Cells were seeded in 6-well plates and treated with compounds or DMSO at the indicated concentrations for 3hrs. Total cell lysates were prepared in either M-PER (Pierce) or RIPA lysis buffer (50 mM Tris-HCl, pH 8.0, 150 mM NaCl, 0.5% NP-40, 0.5% sodium deoxycholate) supplemented with 1x protease inhibitor cocktail (Sigma) and 1x phosphatase inhibitor cocktails (Sigma). Lysates were normalized for protein concentration, resolved by SDS-PAGE, transferred onto nitrocellulose membranes and probed with the indicated antibodies.

A375 cells (BRAF^V600E) = test: Western blot analysis of pAKT and pERK in A375; format: cell-based; details: 3hrs treatment
Protocol: as §1

[1] = molecular target: T2, 18-residue KRAS C-terminal prenylated peptide (Homo sapiens, UniProt P01116); test: BLI with KRAS C-terminal prenylated peptide in PS; format: binding
T2 construct: (biotin-[…](farnesyl)-OCH3) was obtained from AnaSpec (Fremont, California); purchased AnaSpec (Fremont, California); host or cells: synthetic peptide
Protocol: Determination of Kds was performed on the Octet RED platform, according to the manufacturer's recommendations in their application note on small molecule analysis. The prenylated KRAS peptide containing the farnesyl group attached to the terminal cysteine (biotin-[…](farnesyl)-OCH3) was obtained from AnaSpec (Fremont, California). Proteins were obtained as described above. The assay buffer was 25mM Tris containing 190mM glycine, 5mM MgCl2, 0.01% Triton X-100, 1mM DTT and 1.3uM PS (liposome preparation as described above). The protein was attached to SuperStreptavidin biosensors (ForteBio 18–5057) via Avi-tagged-KRAS G12V:GTPγS with C-terminal prenylgroup by adding 2μL of the 5mg/mL solution of PS to 2mL of assay buffer, followed by the KRAS protein to a final concentration of 40nM. After incubation for 1h at RT, the protein was loaded into a 96-well plate (Greiner 655209), and loaded a BLI response of 3-4nm. […] Kds were determined using the ForteBio analysis software tool, which determines Kd from the steady-state plot, or from the determination of the kinetic constants kon and koff. […] After establishing reproducibility with compound 3, all other compounds were measured in singleton.

KRAS construct 1–180 = molecular target: T3, KRAS construct 1–180 (Homo sapiens, UniProt P01116, G12V); test: BLI control with KRAS construct lacking the C-terminus; format: binding; details: KRAS 1–180 lacking C-terminus and prenyl group, 10 μM compound
T3 construct: (His)6-TEV (N, cleaved yes); made in house; host or cells: E. coli BL21 (DE3), co-transformed with BirA

full length BRAF^V600E = molecular target: T4, full length BRAF^V600E (Homo sapiens, UniProt P15056, V600E); test: BRAF^V600E counter-screen (coupled assay lacking KRAS); format: biochemical
T4 construct: made in house; host or cells: insect cells (Sf9, Sf21 or Tn5), baculovirus pBlueBac4.5
T4 sequence (P15056 whole entry V600E): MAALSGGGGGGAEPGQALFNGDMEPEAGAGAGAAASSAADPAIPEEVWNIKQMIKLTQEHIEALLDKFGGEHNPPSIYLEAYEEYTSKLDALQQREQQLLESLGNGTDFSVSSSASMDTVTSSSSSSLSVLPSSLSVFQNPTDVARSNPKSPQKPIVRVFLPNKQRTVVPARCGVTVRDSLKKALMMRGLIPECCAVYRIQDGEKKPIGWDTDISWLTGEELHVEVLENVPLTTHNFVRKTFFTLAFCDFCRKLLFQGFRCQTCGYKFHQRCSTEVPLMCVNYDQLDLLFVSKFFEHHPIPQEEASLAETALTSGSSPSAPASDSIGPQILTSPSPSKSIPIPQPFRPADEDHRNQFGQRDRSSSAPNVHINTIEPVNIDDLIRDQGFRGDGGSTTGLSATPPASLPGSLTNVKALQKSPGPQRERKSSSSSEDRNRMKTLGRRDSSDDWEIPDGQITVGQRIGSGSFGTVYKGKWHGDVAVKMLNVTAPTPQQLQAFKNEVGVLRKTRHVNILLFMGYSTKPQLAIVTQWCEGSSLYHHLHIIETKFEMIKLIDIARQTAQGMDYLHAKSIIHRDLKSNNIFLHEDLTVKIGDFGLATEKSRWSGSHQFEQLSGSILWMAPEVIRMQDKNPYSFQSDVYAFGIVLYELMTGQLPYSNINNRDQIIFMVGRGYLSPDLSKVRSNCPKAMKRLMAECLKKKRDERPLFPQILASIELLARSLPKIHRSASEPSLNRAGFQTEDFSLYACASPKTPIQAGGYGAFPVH
Protocol: An assay consisting of full length BRAF^V600E was used to flag inhibitors acting directly on BRAF, taking advantage of the constitutive activity of the BRAF mutant. […] The counter assay buffer, other components and order of addition matched the RAS-dependent assay except for the presence of KRAS. This assay was reproducible from run to run. […] After establishing reproducibility with this compound, all other compounds were measured with N≥2.

[2] = molecular target: T5, GTPγS-loaded, prenylated KRAS^G12V (Homo sapiens, UniProt P01116, G12V); test: Coupled KRAS-BRAF-MEK assay (BRAF activation by KRAS, AlphaScreen pMEK readout); format: biochemical
T5 construct: made in house; host or cells: insect cells (Sf9, Sf21 or Tn5), baculovirus

[3] = molecular target: T6, prenylated KRAS^G12V loaded with GTPγS (Homo sapiens, UniProt P01116, G12V); test: Biolayer interferometry (BLI) binding to full-length prenylated KRAS in PS; details: for binding in BLI studies: at 10 μM, full-length prenylated KRAS in PS
T6 construct: Avi-tag-(Gly)8 –KRAS^G12V (2–188) was cloned into the pFastBac1 vector; made in house; host or cells: Tn5 insect cells, co-infected with BirA virus
Protocol: Determination of Kds was performed on the Octet RED platform, according to the manufacturer's recommendations in their application note on small molecule analysis. The prenylated KRAS peptide containing the farnesyl group attached to the terminal cysteine (biotin-[sequence](farnesyl)-OCH3) was obtained from AnaSpec (Fremont, California). […] After incubation for 1h at RT, the protein was loaded into a 96-well plate (Greiner 655209), and loaded a BLI response of 3-4nm. […] A reference sensor was run to remove systematic drift, and a second set of SuperStreptavidin biosensors blocked with biocytin was examined to remove systematic optical interferences, and to check for non-specific binding of compounds to the biosensor. Kds were determined using the ForteBio analysis software tool, which determines Kd from the steady-state plot, or from the determination of the kinetic constants kon and koff.

[4] = molecular target: truncated GDP-loaded KRAS; details: cited from earlier work
[5] = molecular target: T7, non-prenylated GMPPNP-loaded KRAS^G12V (Homo sapiens, UniProt P01116, G12V); test: 31P-NMR conformational state of KRAS; details: KRAS^G12V 5 mg/ml; 1 mM compound 2 or 0.5 mM CRAF-RBD
T7 construct: HSQC experiments were run with ^15N-labeled and GDP-loaded K-RAS^G12V (1–169)
Protocol: (§2) The buffer contained 20mM Tris HCl, pH8.0, 50mM NaCl, 1mM MgCl2, 2mM DTT. […] 500 fragments from a fragment library [53] were screened by T1ρ ligand observation experiments, followed by protein-observed HSQC experiments. ^31P NMR spectra were acquired at 278°K on a Bruker AV400 spectrometer operating at 161.6 MHz ^31P frequency, equipped with a BBO probe.

[6] = molecular target: T8, non-prenylated GDP-KRAS^G12V (Homo sapiens, UniProt P01116, G12V); test: HSQC NMR binding / titration; details: non-processed GDP-loaded KRAS^G12V (1–169) in aqueous buffer, no PS; estimated from titration
T8 construct: HSQC experiments were run with ^15N-labeled and GDP-loaded K-RAS^G12V (1–169)
Protocol: as §2

[7] = design: method as in PMID 22431598; details: cited from earlier work
[8] = BRAF^V600E, no KRAS, geomean, read-out: Counter-screen IC50
[9] = GTPγS-loaded full-length prenylated KRAS^G12V in PS, geomean, read-out: Coupled assay IC50
[10] = full-length prenylated GTPγS-loaded KRAS^G12V, PS liposomes, read-out: Kd BLI
[11] = non-processed GDP-loaded KRAS in aqueous buffer, read-out: Kd HSQC

Row | SMILES | EC50 (SW1990 cells) [µM] | effect on pAKT and pERK (cellular activity) (SW1990 cells (KRAS^G12D)) | effect on pAKT levels (A375 cells (BRAF^V600E)) | binding to prenylated peptide in BLI [1] | activity in the counter-screen (full length BRAF^V600E) | IC50 (full length BRAF^V600E; [8]) [µM] | IC50 [2, 9] [µM] | Kd [3, 10] [µM] | Kd [4, 11] [µM] | activity in the coupled assay [2] | binding in BLI studies [3] | other results
1 | Clc1ccc(C[C@@H]2C[C@@H](NCc3c[nH]c4ccccc34)CCN2)cc1 [Compound 3] | 1.2 | dose-dependent decreases in phosphorylation of both of the pathway markers | unexpected pattern of modulation | binds to the prenylated peptide in a concentration-dependent manner | minimal activity was observed | > 25 | 1.2 | 2.6 ± 0.8 |  |  |  | binding in BLI (full-length KRAS; 10 μM compound): some binding was observed; binding in BLI (full-length KRAS; up to 3.3 μM compound): no binding was observed; binding in BLI (KRAS construct 1–180): minimal binding was observed
2 | O=C(Nc1ccc2nc(Cc3c[nH]c4ccccc34)[nH]c2c1)C1CCCN1 (centres unmarked) [Compound 6, reference compound] | > 30 | inactive in cells |  |  | negligible activity | 134 |  |  | 340 | negligible activity |  | 
3 | CC(C)NCC(O)COc1cccc2cc[nH]c12 (centres unmarked) [Compound 1] | > 30 | inactive at the concentrations tested |  |  |  | > 250 | 87 ± 22 |  |  |  |  | 
4 | O=C(N[C@H]1CCN[C@H](Cc2ccc(Cl)cc2)C1)c1c[nH]c2ccc(Br)cc12 [Compound 2] | 2.7 ± 1.4 | dose-dependent decreases in phosphorylation of both of the pathway markers | unexpected pattern of modulation |  | minimal activity was observed | 85 ± 47 | 0.8 ± 0.7 | 0.8 |  |  | minor non-specific binding | γ-phosphate population (conformational state) by 31P-NMR [5]: shift to a single inactive population; Kd [6]: 690 µM
5 | O=C(N[C@H]1CCN(Cc2ccc(O)nc2)C1)c1c[nH]c2ccc(Cl)cc12 [Compound 4] | > 30 | inactive at the concentrations tested |  | did not bind |  | 115 | 49 | > 10 |  | negligible biochemical activity | did not bind | 
6 | Cc1[nH]c2cc(Cl)cc(Cl)c2c1CCN [Compound 5, reference compound] | 18 | double-digit μM potency in cells |  |  |  |  |  |  | 1100 |  |  | potency in cell-based assays [7]: 16 µM; IC50 (full length BRAF^V600E): 29 µM; Kd ([4]; absence of a lipid environment, read-out: published Kd to truncated GDP-loaded KRAS): 1000 µM; IC50 [2]: 7 µM; Kd [3]: 34 µM
